Experiment [1] deals with T1, human recombinant Monoacylglycerol Lipase (Homo sapiens (Human), UniProt Q99685). Briefly: MAGL Enzymatic Assay (fluorogenic substrate 7-HCA), IC50. Conditions: geometric mean of 2-4 determinations unless otherwise indicated. Type of experiment: biochemical. As for the experimental part:
An equal volume of 7-HCA in assay buffer with 10% DMSO was added either immediately (T=0 min) or after a 30 minute incubation (T=30 min) to initiate the reaction. […] After these dilutions, the final concentration of the test compound ranged from 3 μM to 0.03 nM. […] IC50 values were generated based on a four parameter fit model using ABASE software from IDBS.

Experiment [2] concerns the target T1, human recombinant Monoacylglycerol Lipase. Briefly: MAGL inactivation (enzyme progress curves, kinact/KI). The class given is biochemical. Conditions: from plot of Kobs vs. compound concentration; T=0 min protocol; geometric mean of 2-4 determinations.

Where two headings read alike, the source gives them in different places. Where only a bound is given, the exact number is not on record here.

T1 sequence (Q99685 whole entry): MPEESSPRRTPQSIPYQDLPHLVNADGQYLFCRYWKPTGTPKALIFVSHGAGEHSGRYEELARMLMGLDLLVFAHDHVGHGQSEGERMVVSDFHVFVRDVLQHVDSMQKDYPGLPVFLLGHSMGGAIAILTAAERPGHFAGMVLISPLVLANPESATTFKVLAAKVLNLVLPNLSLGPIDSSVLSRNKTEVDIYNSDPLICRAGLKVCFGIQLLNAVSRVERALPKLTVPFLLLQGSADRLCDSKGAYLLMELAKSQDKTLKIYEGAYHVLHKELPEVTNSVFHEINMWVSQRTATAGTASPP

With `CN(C(=O)C(C)(C)C)C1COC2(CCN(C(=O)ON3C(=O)CCC3=O)CC2)C1` (stereo not drawn) [Example 51, N-(8-{[(2,5-dioxopyrrolidin-1-yl)oxy]carbonyl}-1-oxa-8-azaspiro[4.5]dec-3-yl)-N,2,2-trimethylpropanamide], the IC50 in experiment [1] (substrate added after a 30 minute incubation (T=30 min), read-out: MAGL (T = 30 min) IC50) was > 247 nM; in experiment [1] (substrate added immediately (T=0 min), read-out: MAGL (T = 0 min) IC50), > 692 nM. In experiment [2], the “MAGL Kinact/Kl” value is reported as 3290 1/s per M.

Source of the values: patent US10858373B2, “Heterocyclic spiro compounds as MAGL inhibitors” (Pfizer Inc., priority 2017, dated 2020).
